# Data from patent publication US9801901B2, “Alginate oligomers for use in overcoming multidrug resistance in bacteria” (priority 2009, dated 2017).
# Where two headings read alike, the source gives them in different places. Marks after values point to notes of the source that are not given here.
# Tests used:
# [1] = system: Klebsiella pneumoniae KP05 506 from India (V3); assay: MIC assay, CAMHB with alginate oligomer, no visible growth; assay type: cell-based; conditions: for MIC: Klebsiella pneumoniae, Table 1, V3 KP05 506, read-out: MIC
# [2] = system: V22 6056 Acinetobacter; assay: as above; assay type: cell-based, Acinetobacter lwoffii; conditions: Table 5, V22 MDR Acin. lwoff
# [3] = system: V19 non MDR Acinetobacter baumannii; assay: MIC assay, CAMHB with M-block alginate oligomer, no visible growth; assay type: cell-based; conditions: Table 7, V19 non MDR Acin. baum
# Text: The study described in Example 1 was repeated with the following strains of Acinetobacter baumannii, antibiotics and M-block alginate oligomer in place of OligoG CF-5/20 as detailed in Table 7. The M-block oligomer is 100% M with a DPn of 15 to 18,
# [4] = system: V23 1322 Burkholderia cepacia; assay: MIC assay, CAMHB with alginate oligomer, no visible growth; assay type: cell-based
# [5] = system: Pseudomonas aeruginosa CFA 24-1, clinical mucoid strain (R80); assay: as above; assay type: cell-based; conditions: Pseudomonas aeruginosa, Table 1, R80, read-out: MIC
# [6] = system: V11 5702 (Wales) E. coli; assay: as above; assay type: cell-based; conditions: Table 5, V11 MDR E.coli
# [7] = system: Pseudomonas aeruginosa MDR 301 from Poland (V2); assay: as above; assay type: cell-based; conditions: Pseudomonas aeruginosa, Table 1, V2 MDR 301 PA, read-out: MIC
# [8] = system: Pseudomonas aeruginosa MDR R22 from China (V1); assay: as above; assay type: cell-based; conditions: Pseudomonas aeruginosa, Table 1, V1 MDR R22 PA, read-out: MIC
# Text: The study described in Example 1 was repeated with the following strains of bacteria and antibiotics as detailed in Tables 4, 5 and 6.
# [9] = system: Acinetobacter baumannii (MDR ACB, Libya, V4); assay: MIC-assay, Mueller-Hinton broth with G-block alginate, 384-well, OD600
# [10] = system: Acinetobacter lwoffii (6056, V22); assay: as above
# [11] = system: Burkholderia cepacia (LMG18941, ATCC-BAA-246); assay: as above
# [12] = system: Pseudomonas aeruginosa (MDR 301, PSA, V2); assay: as above; conditions: Pseudomonas aeruginosa, Table 8, V2
# [13] = Acinetobacter, OligoCF-5/20 0G, read-out: MIC
# [14] = Burkholderia cepacia, Table 5, V23 MDR Burk cep, OligoCF-5/20 0G, read-out: MIC
# [15] = Table 5, V23 MDR Burk cep, OligoCF-5/20 +2% G
# [16] = Table 5, V23 MDR Burk cep, OligoCF-5/20 +6% G
# [17] = Table 5, V23 MDR Burk cep, OligoCF-5/20 +10% G
# [18] = Table 6, V23, Experiment 1 (18-03-10), OligoCF-5/20 +6% G
# [19] = Table 6, V23, Experiment 1 (18-03-10), OligoCF-5/20 +10% G
# [20] = Table 6, V23, Experiment 3 (19-03-10), OligoCF-5/20 +2% G
# [21] = Table 6, V23, Experiment 3 (19-03-10), OligoCF-5/20 +10% G
# [22] = Escherichia coli, OligoCF-5/20 0G, read-out: MIC
# [23] = Table 9, G-block (OligoCF-5/20) 0%
# [24] = Table 9, G-block (OligoCF-5/20) 2%
# [25] = Table 9, G-block (OligoCF-5/20) 6%
# [26] = Table 9, G-block (OligoCF-5/20) 10%
# [27] = ATCCBAA246|LMG18941, Table 8, G-block (OligoCF-5/20) 0%
# [28] = ATCCBAA246|LMG18941, Table 8, G-block (OligoCF-5/20) 2%
# [29] = ATCCBAA246|LMG18941, Table 8, G-block (OligoCF-5/20) 6%
# [30] = ATCCBAA246|LMG18941, Table 8, G-block (OligoCF-5/20) 10%
structure (smiles),measurement,setting,value
C[C@@H](O)[C@H]1C(=O)N2C(C(=O)O)=C(S[C@@H]3CN[C@H](C(=O)N(C)C)C3)[C@H](C)[C@H]12 [Meropenem],effectiveness in conjunction with alginate oligomers,"[1]; Example 1, KP05 506",inconclusive
same,MIC,[1]; OligoCF-5/20 0G,64 µg/mL
same,MIC,[1]; OligoCF-5/20 +2% G,64 µg/mL
same,MIC,[2]; [13],256 µg/mL
same,MIC,[2]; OligoCF-5/20 +10% G,64^† μg/ml
same,MIC,[3]; M-block oligomer 0M,8 µg/mL
same,MIC,[3]; M-block oligomer +2% M,4 µg/mL
same,MIC,[3]; M-block oligomer +6% M,2 µg/mL
same,MIC,[3]; M-block oligomer +10% M,1 µg/mL
same,MIC,[4]; [14],64 µg/mL
same,MIC,[4]; [15],64 µg/mL
same,MIC,[4]; [16],32^† μg/ml
same,MIC,[4]; [17],8^† μg/ml
same,MIC,[4]; [18],64^† μg/ml
same,MIC,[4]; [19],64^† μg/ml
same,MIC,[4]; [20],64^† μg/ml
same,MIC,[4]; [21],64^† μg/ml
same,MIC,[5]; OligoCF-5/20 0G,< 1 µg/mL
same,MIC,[5]; OligoCF-5/20 +2% G,< 1 µg/mL
same,MIC,[5]; OligoCF-5/20 +6% G,< 1 µg/mL
same,MIC,[5]; OligoCF-5/20 +10% G,< 1 µg/mL
same,MIC,[6]; [22],< 0.25 µg/mL
same,MIC,[6]; OligoCF-5/20 +2% G,<0.25 µg/mL
same,MIC,[6]; OligoCF-5/20 +6% G,<0.25 µg/mL
same,MIC,[6]; OligoCF-5/20 +10% G,<0.25 µg/mL
same,MIC,[7]; OligoCF-5/20 0G,64 µg/mL
same,MIC,[7]; OligoCF-5/20 +2% G,64 µg/mL
same,MIC,[8]; OligoCF-5/20 0G,32 µg/mL
same,MIC,[8]; OligoCF-5/20 +2% G,32 µg/mL
same,MIC,[8]; OligoCF-5/20 +6% G,16 µg/mL
same,MIC,[8]; OligoCF-5/20 +10% G,4 µg/mL
CN(C)[C@@H]1C(O)=C(C(N)=O)C(=O)[C@@]2(O)C(O)=C3C(=O)c4c(O)cccc4[C@@](C)(O)[C@H]3[C@H](O)[C@@H]12 [Oxytetracycline],MIC,[9]; [23],2 µg/mL
same,MIC,[9]; [24],2 µg/mL
same,MIC,[9]; [25],2 µg/mL
same,MIC,[9]; [26],1 µg/mL
same,MIC,[10]; [23],< 2 µg/mL
same,MIC,[10]; [24],< 2 µg/mL
same,MIC,[10]; [25],< 2 µg/mL
same,MIC,[10]; [26],< 2 µg/mL
same,MIC,[2]; [13],2 µg/mL
same,MIC,[2]; OligoCF-5/20 +2% G,2 µg/mL
same,MIC,[2]; OligoCF-5/20 +6% G,2 µg/mL
same,MIC,[2]; OligoCF-5/20 +10% G,8^‡ μg/ml
same,MIC,[4]; [14],256 µg/mL
same,MIC,"[4]; Burkholderia cepacia, Table 6, V23, Experiment 1 (18-03-10), OligoCF-5/20 0G, read-out: MIC",> 256 µg/mL
same,MIC,"[4]; Burkholderia cepacia, Table 6, V23, Experiment 2 (18-03-10), OligoCF-5/20 0G, read-out: MIC",> 256 µg/mL
same,MIC,"[4]; Burkholderia cepacia, Table 6, V23, Experiment 3 (19-03-10), OligoCF-5/20 0G, read-out: MIC",> 256 µg/mL
same,MIC,[4]; [15],128^† μg/ml
same,MIC,[4]; [16],128^† μg/ml
same,MIC,[4]; [17],32^† μg/ml
same,MIC,"[4]; Table 6, V23, Experiment 1 (18-03-10), OligoCF-5/20 +2% G",256^† μg/ml
same,MIC,[4]; [18],256^† μg/ml
same,MIC,[4]; [19],128^† μg/ml
same,MIC,"[4]; Table 6, V23, Experiment 2 (18-03-10), OligoCF-5/20 +2% G",>256 µg/mL
same,MIC,"[4]; Table 6, V23, Experiment 2 (18-03-10), OligoCF-5/20 +6% G",256^† μg/ml
same,MIC,"[4]; Table 6, V23, Experiment 2 (18-03-10), OligoCF-5/20 +10% G",128^† μg/ml
same,MIC,[4]; [20],256^† μg/ml
same,MIC,"[4]; Table 6, V23, Experiment 3 (19-03-10), OligoCF-5/20 +6% G",256^† μg/ml
same,MIC,[4]; [21],256^† μg/ml
same,MIC,[5]; OligoCF-5/20 0G,8 µg/mL
same,MIC,[5]; OligoCF-5/20 +2% G,8 µg/mL
same,MIC,[5]; OligoCF-5/20 +6% G,4 µg/mL
same,MIC,[5]; OligoCF-5/20 +10% G,4 µg/mL
same,MIC,[11]; [27],32 µg/mL
same,MIC,[11]; [28],16 µg/mL
same,MIC,[11]; [29],32 µg/mL
same,MIC,[11]; [30],32 µg/mL
same,MIC,[6]; [22],0.5 µg/mL
same,MIC,[6]; OligoCF-5/20 +2% G,1^‡ μg/ml
same,MIC,[6]; OligoCF-5/20 +6% G,0.5 µg/mL
same,MIC,[6]; OligoCF-5/20 +10% G,0.5 µg/mL
same,MIC,[12]; G-block (OligoCF-5/20) 0%,16 µg/mL
same,MIC,[12]; G-block (OligoCF-5/20) 2%,16 µg/mL
same,MIC,[12]; G-block (OligoCF-5/20) 6%,8 µg/mL
same,MIC,[12]; G-block (OligoCF-5/20) 10%,8 µg/mL
CC[C@H]1OC(=O)[C@H](C)[C@@H](O[C@H]2C[C@@](C)(OC)[C@@H](O)[C@H](C)O2)[C@H](C)[C@@H](O[C@@H]2O[C@H](C)C[C@H](N(C)C)[C@H]2O)[C@](C)(O)C[C@@H](C)/C(=N\OCOCCOC)[C@H](C)[C@@H](O)[C@]1(C)O [Roxithromycin],MIC,[9]; [23],128 µg/mL
same,MIC,[9]; [24],32 µg/mL
same,MIC,[9]; [25],16 µg/mL
same,MIC,[9]; [26],16 µg/mL
same,MIC,[10]; [23],4 µg/mL
same,MIC,[10]; [24],< 2 µg/mL
same,MIC,[10]; [25],< 2 µg/mL
same,MIC,[10]; [26],< 2 µg/mL
same,MIC,[11]; [27],256 µg/mL
same,MIC,[11]; [28],256 µg/mL
same,MIC,[11]; [29],256 µg/mL
same,MIC,[11]; [30],128 µg/mL
same,MIC,[12]; G-block (OligoCF-5/20) 0%,> 512 µg/mL
same,MIC,[12]; G-block (OligoCF-5/20) 2%,> 512 µg/mL
same,MIC,[12]; G-block (OligoCF-5/20) 6%,> 512 µg/mL
same,MIC,[12]; G-block (OligoCF-5/20) 10%,> 512 µg/mL
